{"source": "patent US10233222B2", "about": "“Methods, compositions, diagnostics and assays for the treatment of Alzheimer's disease” (priority 2014, dated 2019)", "target": "T1, Aβ42-SYP interaction (Homo sapiens, UniProt P08247)", "T1 construct": "His6; made in house; host or cells: insect cells (SYP)", "T1 sequence (P08247 whole entry)": "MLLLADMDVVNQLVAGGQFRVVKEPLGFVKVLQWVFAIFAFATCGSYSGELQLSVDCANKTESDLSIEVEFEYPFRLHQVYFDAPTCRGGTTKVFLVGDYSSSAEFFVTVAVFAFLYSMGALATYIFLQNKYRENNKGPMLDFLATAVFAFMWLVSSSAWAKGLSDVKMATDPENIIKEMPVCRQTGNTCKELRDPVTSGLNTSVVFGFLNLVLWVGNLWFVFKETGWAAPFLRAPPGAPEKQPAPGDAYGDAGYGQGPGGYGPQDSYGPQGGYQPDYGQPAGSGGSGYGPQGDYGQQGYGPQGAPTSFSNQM", "assay": "SPR binding of Aβ42 to SYP in the presence of cholesterol hemisuccinate", "details": "increasing concentrations of cholesterol hemisuccinate", "description": "Surface Plasmon Resonance: Binding studies were performed on a Biacore 3000 or a BiOptix 404 pi, with similar results. For the Biacore, a CMS chip was used and for the BiOptix instrument, a CMV150 chip was employed. […] Recombinant human SYP, containing a His(6)-tag expressed in insect cells, was a gift of J. Mapes and A. DeFazio at CU Boulder. Bovine serum albumin (Sigma, St. Louis, Mo.), Interleukin 1 receptor antagonist (gift of Synergen, Inc., Boulder, Colo.), and SLC35F1 (gift of G. Chang, UCSD) were used as control proteins. Binding at a flow rate of 20 μl/min was in 0.15M sodium chloride, 0.03M sodium HEPES, pH 7.4, 0.009% Fos-choline 14 (Anatrace, Santa Clara, Calif.) for all samples.\nWe therefore asked if cholesterol inhibits the Aβ42-SYP interaction."}
{"substance": "cholesterol hemisuccinate", "values": [{"measurement": "inhibition of binding of Aβ42 to SYP", "result": "robust concentration dependent inhibition of binding"}]}
